Assay results published in US9212151B2, “Heterocyclic compounds useful for kinase inhibition” (Amitech Therapeutic Solutions, Inc., priority 2010, dated 2015).

Assay: MTT cell viability assay, compounds at 5, 1 and 0.2 μM, 48 hours
Format: cell-based
Conditions: human, A549 tumor cells, 0.2 μM
Summary of the method: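 A549 cells were seeded at 2500/well in DMEM + 10% FBS, grown overnight, then exposed to compound for 48 h. Viability was read by MTT (5 mg/ml, 4 h), with formazan dissolved in DMSO and absorbance measured at 560/570 nm to give survival rate.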

Row | Compound | viability at 48 h, 0.2 µM [%]
1 | CSc1nc(N)cc(Oc2ccc(-c3nnc(Nc4cc(C(C)(C)C)nn4-c4cccc(C)c4)[nH]3)cc2)n1 [Compound 139] | > 70
2 | CSc1nc(N)cc(Oc2ccc(-c3nnc(Nc4ccccc4Cl)[nH]3)cc2)n1 [Compound 140] | > 70
3 | CC(C)(C)Sc1cc(Oc2ccc(-c3nnc(Nc4cccc(C(F)(F)F)c4)[nH]3)cc2)nc(N)n1 [Compound 141] | > 70
4 | [2H]C([2H])([2H])Oc1cc(Oc2ccc(-c3nnc(Nc4cccc(C(F)(F)F)c4)[nH]3)cc2)nc(N)n1 [Compound 142] | > 70
5 | FC(F)(F)c1cccc(Nc2nnc(-c3ccc(OCc4ccncc4)cc3)[nH]2)c1 [Compound 143] | > 70
6 | CCCNc1cc(Oc2ccc(-c3nnc(Nc4cccc(C(F)(F)F)c4)[nH]3)cc2)nc(SC)n1 [Compound 144] | > 70
7 | COCCCNc1cc(Oc2ccc(-c3nnc(Nc4cccc(C(F)(F)F)c4)[nH]3)cc2)nc(SC)n1 [Compound 145] | > 70
8 | FC(F)(F)c1cccc(Nc2nnc(-c3ccc(Oc4cncc5ccccc45)cc3)[nH]2)c1 [Compound 146] | > 70
9 | O=[N+]([O-])c1cc(F)cc(Oc2ccc(-c3nnc(Nc4cccc(C(F)(F)F)c4)[nH]3)cc2)c1 [Compound 147] | > 70
10 | FC(F)(F)c1cccc(Nc2nnc(-c3ccc(Oc4ccnc5cc(C(F)(F)F)ccc45)cc3)[nH]2)c1 [Compound 148] | > 70
11 | FC(F)(F)c1cccc(Nc2nnc(-c3ccc(Oc4nccc5ccccc45)cc3)[nH]2)c1 [Compound 149] | > 70
12 | FC(F)(F)c1cccc(Nc2nnc(-c3ccc(Oc4ccnc5cc(Cl)ccc45)cc3)[nH]2)c1 [Compound 150] | > 70
13 | CC(C)(C)Sc1cc(Oc2cccc(-c3nnc(Nc4cccc(C(F)(F)F)c4)[nH]3)c2)nc(N)n1 [Compound 151] | > 70
14 | Nc1cc(Oc2ccc(-c3nnc(Nc4cccc(C(F)(F)F)c4)[nH]3)cc2)nc(Sc2ccccn2)n1 [Compound 152] | > 70
15 | CSc1nc(N)cc(Oc2ccc(-c3nnc(Nc4cccc(C(=O)O)c4)[nH]3)cc2)n1 [Compound 153] | > 70
16 | CSc1nc(N)cc(Oc2ccc(-c3nnc(Nc4ccccc4C)[nH]3)cc2)n1 [Compound 154] | 50 to 70
17 | CSc1nc(N)cc(Oc2ccc(-c3nnc(NC4CCCCC4)[nH]3)cc2)n1 [Compound 155] | > 70
18 | Nc1cc(F)cc(Oc2ccc(-c3nnc(Nc4cccc(C(F)(F)F)c4)[nH]3)cc2)c1 [Compound 156] | > 70
19 | Cc1nc(C(F)(F)F)nc(Oc2ccc(-c3nnc(Nc4cccc(C(F)(F)F)c4)[nH]3)cc2)c1C [Compound 157] | > 70
20 | Cc1cc(Oc2ccc(-c3nnc(Nc4cccc(C(F)(F)F)c4)[nH]3)cc2)c2ccccc2n1 [Compound 158] | > 70
21 | FC(F)(F)c1cccc(Nc2nnc(-c3ccc(Oc4cc(C(F)(F)F)nc5ccccc45)cc3)[nH]2)c1 [Compound 159] | > 70
22 | COc1cc2ncnc(Oc3ccc(-c4nnc(Nc5cccc(C(F)(F)F)c5)[nH]4)cc3)c2cc1OC [Compound 160] | > 70
23 | O=c1cc(COc2ccc(-c3nnc(Nc4cccc(C(F)(F)F)c4)[nH]3)cc2)c2ccccc2[nH]1 [Compound 161] | > 70

Same assay, conditions: human, A549 tumor cells, 1 μM

Row | Compound | viability at 48 h, 1 µM [%]
24 | CSc1nc(N)cc(Oc2ccc(-c3nnc(Nc4cc(C(C)(C)C)nn4-c4cccc(C)c4)[nH]3)cc2)n1 [Compound 139] | > 70
25 | CSc1nc(N)cc(Oc2ccc(-c3nnc(Nc4ccccc4Cl)[nH]3)cc2)n1 [Compound 140] | > 70
26 | CC(C)(C)Sc1cc(Oc2ccc(-c3nnc(Nc4cccc(C(F)(F)F)c4)[nH]3)cc2)nc(N)n1 [Compound 141] | > 70
27 | [2H]C([2H])([2H])Oc1cc(Oc2ccc(-c3nnc(Nc4cccc(C(F)(F)F)c4)[nH]3)cc2)nc(N)n1 [Compound 142] | > 70
28 | FC(F)(F)c1cccc(Nc2nnc(-c3ccc(OCc4ccncc4)cc3)[nH]2)c1 [Compound 143] | > 70
29 | CCCNc1cc(Oc2ccc(-c3nnc(Nc4cccc(C(F)(F)F)c4)[nH]3)cc2)nc(SC)n1 [Compound 144] | > 70
30 | COCCCNc1cc(Oc2ccc(-c3nnc(Nc4cccc(C(F)(F)F)c4)[nH]3)cc2)nc(SC)n1 [Compound 145] | > 70
31 | FC(F)(F)c1cccc(Nc2nnc(-c3ccc(Oc4cncc5ccccc45)cc3)[nH]2)c1 [Compound 146] | > 70
32 | O=[N+]([O-])c1cc(F)cc(Oc2ccc(-c3nnc(Nc4cccc(C(F)(F)F)c4)[nH]3)cc2)c1 [Compound 147] | > 70
33 | FC(F)(F)c1cccc(Nc2nnc(-c3ccc(Oc4ccnc5cc(C(F)(F)F)ccc45)cc3)[nH]2)c1 [Compound 148] | > 70
34 | FC(F)(F)c1cccc(Nc2nnc(-c3ccc(Oc4nccc5ccccc45)cc3)[nH]2)c1 [Compound 149] | > 70
35 | FC(F)(F)c1cccc(Nc2nnc(-c3ccc(Oc4ccnc5cc(Cl)ccc45)cc3)[nH]2)c1 [Compound 150] | > 70
36 | CC(C)(C)Sc1cc(Oc2cccc(-c3nnc(Nc4cccc(C(F)(F)F)c4)[nH]3)c2)nc(N)n1 [Compound 151] | > 70
37 | Nc1cc(Oc2ccc(-c3nnc(Nc4cccc(C(F)(F)F)c4)[nH]3)cc2)nc(Sc2ccccn2)n1 [Compound 152] | > 70
38 | CSc1nc(N)cc(Oc2ccc(-c3nnc(Nc4cccc(C(=O)O)c4)[nH]3)cc2)n1 [Compound 153] | > 70
39 | CSc1nc(N)cc(Oc2ccc(-c3nnc(Nc4ccccc4C)[nH]3)cc2)n1 [Compound 154] | < 50
40 | CSc1nc(N)cc(Oc2ccc(-c3nnc(NC4CCCCC4)[nH]3)cc2)n1 [Compound 155] | > 70
41 | Nc1cc(F)cc(Oc2ccc(-c3nnc(Nc4cccc(C(F)(F)F)c4)[nH]3)cc2)c1 [Compound 156] | > 70
42 | Cc1nc(C(F)(F)F)nc(Oc2ccc(-c3nnc(Nc4cccc(C(F)(F)F)c4)[nH]3)cc2)c1C [Compound 157] | > 70
43 | Cc1cc(Oc2ccc(-c3nnc(Nc4cccc(C(F)(F)F)c4)[nH]3)cc2)c2ccccc2n1 [Compound 158] | > 70
44 | FC(F)(F)c1cccc(Nc2nnc(-c3ccc(Oc4cc(C(F)(F)F)nc5ccccc45)cc3)[nH]2)c1 [Compound 159] | > 70
45 | COc1cc2ncnc(Oc3ccc(-c4nnc(Nc5cccc(C(F)(F)F)c5)[nH]4)cc3)c2cc1OC [Compound 160] | > 70
46 | O=c1cc(COc2ccc(-c3nnc(Nc4cccc(C(F)(F)F)c4)[nH]3)cc2)c2ccccc2[nH]1 [Compound 161] | 50 to 70

Same assay, conditions: human, A549 tumor cells, 5 μM

Row | Compound | viability at 48 h, 5 µM [%]
47 | CSc1nc(N)cc(Oc2ccc(-c3nnc(Nc4cc(C(C)(C)C)nn4-c4cccc(C)c4)[nH]3)cc2)n1 [Compound 139] | > 70
48 | CSc1nc(N)cc(Oc2ccc(-c3nnc(Nc4ccccc4Cl)[nH]3)cc2)n1 [Compound 140] | 50 to 70
49 | CC(C)(C)Sc1cc(Oc2ccc(-c3nnc(Nc4cccc(C(F)(F)F)c4)[nH]3)cc2)nc(N)n1 [Compound 141] | < 50
50 | [2H]C([2H])([2H])Oc1cc(Oc2ccc(-c3nnc(Nc4cccc(C(F)(F)F)c4)[nH]3)cc2)nc(N)n1 [Compound 142] | > 70
51 | FC(F)(F)c1cccc(Nc2nnc(-c3ccc(OCc4ccncc4)cc3)[nH]2)c1 [Compound 143] | > 70
52 | CCCNc1cc(Oc2ccc(-c3nnc(Nc4cccc(C(F)(F)F)c4)[nH]3)cc2)nc(SC)n1 [Compound 144] | 50 to 70
53 | COCCCNc1cc(Oc2ccc(-c3nnc(Nc4cccc(C(F)(F)F)c4)[nH]3)cc2)nc(SC)n1 [Compound 145] | < 50
54 | FC(F)(F)c1cccc(Nc2nnc(-c3ccc(Oc4cncc5ccccc45)cc3)[nH]2)c1 [Compound 146] | < 50
55 | O=[N+]([O-])c1cc(F)cc(Oc2ccc(-c3nnc(Nc4cccc(C(F)(F)F)c4)[nH]3)cc2)c1 [Compound 147] | 50 to 70
56 | FC(F)(F)c1cccc(Nc2nnc(-c3ccc(Oc4ccnc5cc(C(F)(F)F)ccc45)cc3)[nH]2)c1 [Compound 148] | > 70
57 | FC(F)(F)c1cccc(Nc2nnc(-c3ccc(Oc4nccc5ccccc45)cc3)[nH]2)c1 [Compound 149] | 50 to 70
58 | FC(F)(F)c1cccc(Nc2nnc(-c3ccc(Oc4ccnc5cc(Cl)ccc45)cc3)[nH]2)c1 [Compound 150] | > 70
59 | CC(C)(C)Sc1cc(Oc2cccc(-c3nnc(Nc4cccc(C(F)(F)F)c4)[nH]3)c2)nc(N)n1 [Compound 151] | > 70
60 | Nc1cc(Oc2ccc(-c3nnc(Nc4cccc(C(F)(F)F)c4)[nH]3)cc2)nc(Sc2ccccn2)n1 [Compound 152] | > 70
61 | CSc1nc(N)cc(Oc2ccc(-c3nnc(Nc4cccc(C(=O)O)c4)[nH]3)cc2)n1 [Compound 153] | > 70
62 | CSc1nc(N)cc(Oc2ccc(-c3nnc(Nc4ccccc4C)[nH]3)cc2)n1 [Compound 154] | < 50
63 | CSc1nc(N)cc(Oc2ccc(-c3nnc(NC4CCCCC4)[nH]3)cc2)n1 [Compound 155] | < 50
64 | Nc1cc(F)cc(Oc2ccc(-c3nnc(Nc4cccc(C(F)(F)F)c4)[nH]3)cc2)c1 [Compound 156] | 50 to 70
65 | Cc1nc(C(F)(F)F)nc(Oc2ccc(-c3nnc(Nc4cccc(C(F)(F)F)c4)[nH]3)cc2)c1C [Compound 157] | > 70
66 | Cc1cc(Oc2ccc(-c3nnc(Nc4cccc(C(F)(F)F)c4)[nH]3)cc2)c2ccccc2n1 [Compound 158] | 50 to 70
67 | FC(F)(F)c1cccc(Nc2nnc(-c3ccc(Oc4cc(C(F)(F)F)nc5ccccc45)cc3)[nH]2)c1 [Compound 159] | 50 to 70
68 | COc1cc2ncnc(Oc3ccc(-c4nnc(Nc5cccc(C(F)(F)F)c5)[nH]4)cc3)c2cc1OC [Compound 160] | 50 to 70
69 | O=c1cc(COc2ccc(-c3nnc(Nc4cccc(C(F)(F)F)c4)[nH]3)cc2)c2ccccc2[nH]1 [Compound 161] | < 50
